According to patent US20220370636A1, “NICOTINAMIDE ADENINE DINUCLEOTIDE ACTIVATOR AND USE THEREOF” (University of South Florida, priority 2021, published 2022):

Tests used:
C57Bl/6J wildtype hearts = assay: Ex vivo ischemia reperfusion (Langendorff) in wildtype hearts; parameters: species or system mice
Procedure: Ex vivo ischemia reperfusion protocol. Mice were injected with heparin (360 USP units, Sigma-Aldrich, MO, USA) and euthanized with Somnasol™ (pentobarbital, 50 mg/kg i.p. body weight). Hearts were then excised and mounted on to the Langendorff apparatus immediately and perfused with Krebs-Hanseleit buffer containing (in mM): 119 NaCl, 25 NaHCO3, 4 KCl, 1 MgCl2, 1.8 CaCl2), 1 MgCl2, 10 glucose and 2 Sodium pyruvate, pH 7.4, that was constantly bubbled with carbogen gas and maintained at 37° C. as described previously. Perfusion was maintained at a constant flow of ˜2.2 ml/min. Hearts were stabilized for 30 min before proceeding to the ischemic phase. Hearts that underwent P7C3 (3 μM) treatment during the Langendorff procedure were allowed to stabilize for 10 mins then a 20 min perfusion with P7C3 (3 μM) (within Krebs-Hanseleit buffer) as pre-ischemic dosing. Cardiac ischemia was induced by the pause in Krebs-Hanseleit buffer perfusion for 45 min. Reperfusion was induced with the induction of Krebs-Hanseleit buffer at a constant flow of ˜2.2 ml/min for 2 hours. Hearts that underwent P7C3 (3 μM) treatment received 2-hour reperfusion with P7C3 within the Krebs-Hanseleit buffer. Hearts were then removed from the Langendorff apparatus and immediately placed in −20° C. freezer for 30 minutes. Hearts were then placed on a sectioning block and sliced into ([…]) slices. Heart sections were subjected to 2,3,5-Triphenyltetrazolium chloride (TTC) staining for 30 minutes. Hearts were then imaged and scanned for ischemic damage assessment. Image J software was utilized to quantify the ischemic areas for several sections per heart, which were then averaged and divided by the total area of the heart section and multiplied by a factor of ×100(%) to determine the overall damage percentage per heart.
Lactate Dehydrogenase activity. […]. The absorbance intensity was measured at 450 nm.
Troponin I activity. […].
Western blotting. For studies aimed to assess the insulin stimulated AKT phosphorylation, following four-week P7C3 treatment, mice were injected with Novolin R human insulin (1 Unit/kg body weight, i.p.), and hearts were collected after 5 minutes for Western blot analysis. Protein lysates for Western blotting were prepared from mouse hearts as described previously. Equivalent amounts of protein were loaded and resolved using 12% precast polyacrylamide gels (BioRad, CA, USA). Successful transfer of proteins was detected using Ponceau S (Sigma-Aldrich, MO, USA), and blots were probed with mouse monoclonal primary antibody for phospho AKT^ser473 (p-AKT), total AKT (t-AKT), phospho eNOS^ser1177 (p-eNOS), total eNOS (t-eNOS), Beclin1, and GAPDH (Cell signaling, MA, USA). HRP conjugated Rabbit anti-mouse antibody (Millipore) was used as a secondary antibody. Target protein band densities were quantified using Image J software.

[1] = system: Nampt+/− and littermate WT mice; assay: Glucose tolerance test in Nampt+/- and littermate WT mice; type: in vivo; conditions: vs vehicle
RAW264.7 cells [2] = assay: qRT-PCR of inflammatory genes in LPS-treated RAW264.7 cells; type: cell-based; conditions: LPS 1 μg/ml + P7C3 1 μM, 24 hours
Procedure: FIGS. 2A and 2B show macrophage: LPS induced inflammation and recovery via P7 markers such as NF-κb, IL-1β, IL-6. […] RAW264.7 cells was treated with LPS (1 μg/ml) and P7C3 (1 μM) for 24 hours. The isolated mRNA was subjected qRT-PCR using iScript cDNA Synthesis Kit (Bio-Rad, Cat #: 1706691) and iTaq Universal SYBR Green Supermix (Bio-Rad, Cat #: 1725121) in iCycler iQ Real Time PCR Detection System (Bio-Rad). The value of 2^-ΔΔCt was calculated and expressed as a Mean±SEM (n=6). The statistical analysis was performed using two-way ANOVA with Tukey's multiple comparisons test in GraphPad Prism 8.4.3, and p≤0.05 was considered statistically significant. […]

RAW264.7 cells [3] = assay: Morphology and number of activated cells in LPS-induced RAW264.7 macrophage; type: cell-based; conditions: LPS 1 μg/ml + P7C3 1 μM
Procedure: FIGS. 3A-3E show morphology and number of activated cells in LPS-induced RAW264.7 macrophage in vitro. RAW264.7 cells were cultured in complete medium (FIG. 3A) or contained with P7C3 (FIG. 3B, 1 μM), LPS (FIG. 3C, 1 μg/ml), and LPS+P7C3 (FIG. 3D) for […]. The photo was taken under inverted microscopy (Rebel, ECHO) at 20× mag. The elongated and pseudopod shape of cells were considered as activated (yellow star), but the small and round shape of cells was considered as inactivated (yellow arrow). […] The statistical analysis was performed using two-way ANOVA with Tukey's multiple comparisons test in GraphPad Prism 8.4.3, and p≤0.05 was considered statistically significant.

db/db mice = assay: Echocardiography, body and heart weight in db/db mice; type: in vivo; conditions: 10 mg/kg/day i.p., four-weeks
Procedure: Echocardiography. Serial […] echocardiography was conducted under 2-3% isoflurane/oxygen anesthesia using a Visualsonic Vevo 770 system equipped with 30 MHz linear signal transducer (Toronto, Ontario, Canada). The mice were depilated as required for imaging and before placing on a 37° C. heated platform. Echo measurements were taken from at least three different cardiac cycles for each mouse. M-mode imaging from short-axis of the left ventricle (LV), using the papillary muscles for reference, was used to obtain measurements. Fractional shortening (FS %) and ejection fraction (EF %) were calculated as previously described.

[4] = WT hearts perfused with P7C3 3 μM
[5] = WT hearts, following I/R injury, vs control hearts

In the case of `OC(CNc1ccccc1)Cn1c2ccc(Br)cc2c2cc(Br)ccc21` (stereo not shown) [P7C3, 3,6-Dibromo-a-[(phenylamino)methyl]-9H-carbazole-9-ethanol], the “increase in NAD+/NADH levels” value (C57Bl/6J wildtype hearts; [4]) is reported as 3 fold, the “increase in cardiac Nampt activity” value (C57Bl/6J wildtype hearts; [4]) is reported as 1.7 fold and the “ischemic injury (infarct)” value (C57Bl/6J wildtype hearts; WT hearts, P7C3 3 μM pre- and post-exposure) is reported as 8%. For the same compound, the “p-AKT/t-AKT levels post I/R injury” value (C57Bl/6J wildtype hearts; WT hearts, P7C3 3 μM, vs vehicle control hearts) was “significant increase”, the “coronary effluent LDH activity” value (C57Bl/6J wildtype hearts; [5]) was “significantly reduced” and the “coronary effluent Troponin I” value (C57Bl/6J wildtype hearts; [5]) was “significantly reduced”. For the same compound, the “GTT circulating blood glucose levels” value ([1]; Nampt littermate WT mice, single dose 10 mg/kg i/p) was “significant decrease”, the “GTT percent AUC” value ([1]; Nampt littermate WT mice) was “significant decrease” and the “GTT blood glucose levels” value ([1]; Nampt+/− mice, single dose 10 mg/kg i/p) was “did not show any significant effect”. The “GTT percent AUC” value ([1]; Nampt+/− mice) was “no significant differences”, the IL-1β expression (RAW264.7 cells [2]) was “significantly decreased” and the IL-6 expression (RAW264.7 cells [2]) was “decreased”. For the same compound, the IL-10 expression (RAW264.7 cells [2]) was “decreased”, the NF-κb expression (RAW264.7 cells [2]) was “significantly decreased” and the TNFα expression (RAW264.7 cells [2]) was “significantly decreased”. For the same compound, the “number of activated RAW264.7 cells” value (RAW264.7 cells [3]; vs LPS) was “significantly decreased”, the “non-activated RAW264.7 cells” value (RAW264.7 cells [3]; vs LPS group) was “significantly higher” and the “ejection fraction (EF %)” value (db/db mice) was “significantly increased”. The “fractional shortening (FS %)” value (db/db mice) was “significantly increased”.
